The source of these data is US20100248390A1, “COMPOSITIONS AND METHODS FOR IDENTIFYING LIGANDS OF ODORANT RECEPTORS” (DUKE UNIVERSITY, priority 2009, published 2010).

The target in assay [1] is T1, human odorant receptors (ORs) (Homo sapiens, UniProt Q8TCB6).
T1 construct: OR open reading frames were amplified from genomic DNA; expressed in transfected cells; host or cells: Hana3A cells, co-transfected with RTP1S, CRE-luciferase and pRL-SV40
T1 sequence (Q8TCB6 1-318): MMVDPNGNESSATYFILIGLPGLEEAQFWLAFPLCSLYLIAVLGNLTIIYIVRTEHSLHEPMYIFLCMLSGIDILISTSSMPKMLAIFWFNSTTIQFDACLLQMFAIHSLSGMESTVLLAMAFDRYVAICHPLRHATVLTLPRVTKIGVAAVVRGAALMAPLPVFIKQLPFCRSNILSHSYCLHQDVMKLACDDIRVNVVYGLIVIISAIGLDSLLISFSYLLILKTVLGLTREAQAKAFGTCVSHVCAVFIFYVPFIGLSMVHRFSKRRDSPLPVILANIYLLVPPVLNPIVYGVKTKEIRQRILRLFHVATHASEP
In words: CRE-luciferase assay of odorant receptor activation (Dual-Glo, Hana3A cells, RTP1S), dose-response EC50. The class given is cell-based. The essentials:
(§1)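 Hana3A cells were co-transfected with Rho-tagged OR, RTP1S, CRE-luciferase and pRL-SV40, then exposed to odorant in CD293 medium for 4 hrs at 37° C. Firefly luminescence was divided by Renilla and normalized as (LN−Lmin)/(Lmax−Lmin) per plate set. Each dose was tested at least three times, and EC50 came from sigmoidal fits.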

Assay [2] deals with T2, human odorant receptors (ORs) (Homo sapiens, UniProt Q8NGJ5).
T2 construct: OR open reading frames were amplified from genomic DNA; expressed in transfected cells; host or cells: Hana3A cells, co-transfected with RTP1S, CRE-luciferase and pRL-SV40
T2 sequence (Q8NGJ5 1-315): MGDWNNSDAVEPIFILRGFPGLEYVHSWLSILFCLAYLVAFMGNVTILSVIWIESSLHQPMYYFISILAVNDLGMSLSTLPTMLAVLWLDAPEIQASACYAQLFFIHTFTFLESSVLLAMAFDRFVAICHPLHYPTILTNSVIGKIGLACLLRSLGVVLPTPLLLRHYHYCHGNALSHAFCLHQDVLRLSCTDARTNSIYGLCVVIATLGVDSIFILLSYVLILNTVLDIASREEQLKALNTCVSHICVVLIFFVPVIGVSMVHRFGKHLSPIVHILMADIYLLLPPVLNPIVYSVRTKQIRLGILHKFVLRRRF
Described as above. The class given is cell-based. The essentials: as §1

Take `CCCCCCCCC(=O)O` [Nonanoic acid]: the EC50 in assay [1] was 246 µM. `C=CCOC(=O)Cc1ccccc1` [Allyl phenylacetate] gave a half-maximal effective concentration (EC50) in assay [2] of 67.6 µM.
